Series [1] has as its target T1, OCT3 (SLC22A3) (Mus musculus, UniProt Q9WTW5).
T1 sequence (Q9WTW5 whole entry): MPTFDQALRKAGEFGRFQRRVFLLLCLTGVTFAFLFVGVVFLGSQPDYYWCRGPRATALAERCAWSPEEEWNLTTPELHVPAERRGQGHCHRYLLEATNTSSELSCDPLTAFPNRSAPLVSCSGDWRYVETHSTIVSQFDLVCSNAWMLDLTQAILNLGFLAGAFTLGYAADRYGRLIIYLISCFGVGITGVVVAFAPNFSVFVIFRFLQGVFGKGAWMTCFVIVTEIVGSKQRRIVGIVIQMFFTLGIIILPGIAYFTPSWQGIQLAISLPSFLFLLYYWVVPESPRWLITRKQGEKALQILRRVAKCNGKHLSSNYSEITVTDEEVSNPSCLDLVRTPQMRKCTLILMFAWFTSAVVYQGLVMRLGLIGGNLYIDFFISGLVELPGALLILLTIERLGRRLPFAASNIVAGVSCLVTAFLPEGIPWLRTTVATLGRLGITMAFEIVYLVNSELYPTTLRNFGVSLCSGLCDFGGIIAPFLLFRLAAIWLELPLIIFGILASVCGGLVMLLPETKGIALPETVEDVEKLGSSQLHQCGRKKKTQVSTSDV
Put plainly: TP_TRANSPORTER: inhibition of TEA uptake (TEA: 20 uM, MPTP: 5000 uM) in OCT3-expressing HRPE cells. The format is functional, cell-based. Particulars: human, HRPE cells that express OCT3, probe TEA.

Series [2] deals with T2, Solute carrier family 22 member 3 (Mus musculus, UniProt Q9WTW5).
T2 sequence (Q9WTW5 whole entry): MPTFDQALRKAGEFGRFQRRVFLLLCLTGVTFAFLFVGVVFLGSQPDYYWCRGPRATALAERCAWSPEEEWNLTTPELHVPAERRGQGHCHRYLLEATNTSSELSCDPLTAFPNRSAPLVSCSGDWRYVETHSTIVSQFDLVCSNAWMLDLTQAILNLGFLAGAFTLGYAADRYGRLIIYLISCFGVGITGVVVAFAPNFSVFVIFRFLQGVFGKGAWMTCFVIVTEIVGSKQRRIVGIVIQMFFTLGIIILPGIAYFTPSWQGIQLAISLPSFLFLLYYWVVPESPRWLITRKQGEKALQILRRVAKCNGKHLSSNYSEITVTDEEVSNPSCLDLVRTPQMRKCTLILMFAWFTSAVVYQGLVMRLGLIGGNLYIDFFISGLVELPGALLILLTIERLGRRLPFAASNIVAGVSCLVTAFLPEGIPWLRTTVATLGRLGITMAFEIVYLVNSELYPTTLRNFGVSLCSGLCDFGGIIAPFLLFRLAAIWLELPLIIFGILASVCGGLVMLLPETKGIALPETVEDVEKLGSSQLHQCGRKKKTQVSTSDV
Description: TP_TRANSPORTER: uptake in Xenopus laevis oocytes. The format is functional, cell-based. The settings on record: oocyte.

Series [3] deals with T1, OCT3 (SLC22A3). Description: TP_TRANSPORTER: inhibition of TEA uptake (TEA: 20 uM, MPP+: 5000 uM) in OCT3-expressing HRPE cells. Format: functional, cell-based. Particulars: human, HRPE cells that express OCT3, probe TEA.
Series [4] has as its target T3, Solute carrier family 22 member 3 (Homo sapiens, UniProt O75751).
T3 sequence (O75751 whole entry): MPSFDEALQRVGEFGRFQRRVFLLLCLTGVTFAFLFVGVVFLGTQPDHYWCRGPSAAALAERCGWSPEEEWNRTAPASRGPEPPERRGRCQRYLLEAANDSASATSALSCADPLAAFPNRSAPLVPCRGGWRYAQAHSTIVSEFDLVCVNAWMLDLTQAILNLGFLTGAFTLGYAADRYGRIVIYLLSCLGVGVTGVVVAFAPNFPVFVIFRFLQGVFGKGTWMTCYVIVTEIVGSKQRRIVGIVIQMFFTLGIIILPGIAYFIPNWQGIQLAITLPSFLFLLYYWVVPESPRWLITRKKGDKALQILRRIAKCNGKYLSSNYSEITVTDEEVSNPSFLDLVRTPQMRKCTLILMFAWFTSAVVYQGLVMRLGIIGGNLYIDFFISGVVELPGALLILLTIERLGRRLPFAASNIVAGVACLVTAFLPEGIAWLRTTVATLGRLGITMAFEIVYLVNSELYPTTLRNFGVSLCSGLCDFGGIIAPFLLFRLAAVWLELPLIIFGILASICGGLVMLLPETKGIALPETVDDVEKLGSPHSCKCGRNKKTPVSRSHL
Put plainly: TP_TRANSPORTER: inhibition of MPP+ uptake in OCT3-expressing HRPE cells. The format is functional, cell-based.

Series [5] addresses T1, OCT3 (SLC22A3). Description: in vitro. The settings on record: human, HRPE cells that express OCT3, probe TEA.
The target of series [6] is T1, OCT3 (SLC22A3). Put plainly: in vitro. Particulars: human, HRPE cells that express OCT3, probe TEA. The source holds these as a separate data set.
The target of series [7] is T2, Solute carrier family 22 member 3. Description: TP_TRANSPORTER: inhibition of TEA uptake (TEA: 20 uM, Guanidine: 5000 uM) in OCT3-expressing HRPE cells. The format is functional, cell-based. The settings on record: human.
Series [8] shares this target. Put plainly: TP_TRANSPORTER: inhibition of TEA uptake (TEA: 20 uM, NMN: 5000 uM) in OCT3-expressing HRPE cells. The format is functional, cell-based. Particulars: human.
In series [9] the target is T3, Solute carrier family 22 member 3. Put plainly: TP_TRANSPORTER: uptake in OCT3-expressing HRPE cells. The format is functional, cell-based.
Substrate in series [10]: CC[N+](CC)(CC)CC
Description: cells, lysate or membranes named.

Take `CN1CC=C(c2ccccc2)CC1`: in series [1], the inhibition (as a rule, the relative decrease from the control value, in per cent) at 5000 µM was greater than 90%. As for `C[n+]1ccc(-c2ccccc2)cc1`, in series [2], the Activity entry was “substrate [+]”. In series [3], the inhibition at 5000 µM was greater than 90%. Further, the affinity in [4], expressed as Ki, was 54 µM.

For `CN/C(=N/CCSCc1nc[nH]c1C)NC#N` [CIMETIDINE], the inhibition at 5000 µM in series [5] was greater than 90%.

`Clc1cccc(Cl)c1N=C1NCCN1` [CLONIDINE] yielded an inhibition at 5000 µM in [6] greater than 90%. Also, the Ki – broadly, a measure of affinity in units of concentration, obtained from inhibition or displacement – in series [4] is 373 µM. `CNCCCN1c2ccccc2CCc2ccccc21` [DESIPRAMINE]: the Ki in series [4] was 14 µM. In the case of `N=C(N)N` [GUANIDINE], the Activity result in series [2] is “substrate [+]”. For the same molecule, the affinity in series [4], expressed as Ki, was 6200 µM. Besides, the Inhibition result in series [7] was “inhibitor [60-70 % inhibition]”. On to `CN(C)CCCN1c2ccccc2CCc2ccccc21` [IMIPRAMINE], for which the Ki in [4] is 42 µM. `CNC(=O)c1cccnc1` [NICOTINYL METHYLAMIDE]: in series [8], the Inhibition result was “inhibitor [60-70 % inhibition]”. `CCN(CC)CCNC(=O)c1ccc(N)cc1` [PROCAINAMIDE] yielded a Ki in series [4] of 738 µM. In the case of `CC[N+](CC)(CC)CC` [TETRYLAMMONIUM], the Activity result in [2] and in series [9] was “substrate [+]” throughout. Also, affinity in series [4] was put at a Ki of 1370 µM.

B1: Solute carrier family 22 member 3 (Mus musculus) (protein)
chain: MPTFDQALRKAGEFGRFQRRVFLLLCLTGVTFAFLFVGVVFLGSQPDYYWCRGPRATALAERCAWSPEEEWNLTTPELHVPAERRGQGHCHRYLLEATNTSSELSCDPLTAFPNRSAPLVSCSGDWRYVETHSTIVSQFDLVCSNAWMLDLTQAILNLGFLAGAFTLGYAADRYGRLIIYLISCFGVGITGVVVAFAPNFSVFVIFRFLQGVFGKGAWMTCFVIVTEIVGSKQRRIVGIVIQMFFTLGIIILPGIAYFTPSWQGIQLAISLPSFLFLLYYWVVPESPRWLITRKQGEKALQILRRVAKCNGKHLSSNYSEITVTDEEVSNPSCLDLVRTPQMRKCTLILMFAWFTSAVVYQGLVMRLGLIGGNLYIDFFISGLVELPGALLILLTIERLGRRLPFAASNIVAGVSCLVTAFLPEGIPWLRTTVATLGRLGITMAFEIVYLVNSELYPTTLRNFGVSLCSGLCDFGGIIAPFLLFRLAAIWLELPLIIFGILASVCGGLVMLLPETKGIALPETVEDVEKLGSSQLHQCGRKKKTQVSTSDV
On to B1, for which, in series [10], the Km (usually the concentration of substrate that gives half-maximal velocity) is 1900 µM.
